# Measurements taken from patent US9592221B2, “Antibacterial agents: aryl myxopyronin derivatives” (priority 2012, dated 2017).
# What was measured:
# [1] = test system: Escherichia coli D21f2tolC; experiment: MIC, spiral gradient endpoint assay, E. coli D21f2tolC; type: cell-based; conditions: Escherichia coli, D21F2TOLC, read-out: MIC E. coli D21f2toIC
# [2] = test system: Bacillus anthracis Vollum 1b; experiment: microbe, parasite or virus in culture; type: cell-based; conditions: Bacillus anthracis, VOLLUM1B, read-out: MIC B. anthracis Vollum-1b
# Yersinia pestis C092 = experiment: microbe, parasite or virus in culture; type: cell-based; conditions: Yersinia pestis, C092, read-out: MIC Y. pestis C092
# [3] = test system: Francisella tularensis SCHU4; experiment: microbe, parasite or virus in culture; type: cell-based; conditions: Francisella tularensis, SCHU4, read-out: MIC F. tularensis SCHU4
# [4] = test system: Staphylococcus aureus ATCC 12600; experiment: MIC, spiral gradient endpoint assay, S. aureus ATCC 12600; type: cell-based; conditions: ATCC12600; Staphylococcus aureus ATCC 12600
# [5] = test system: Burkholderia pseudomallei Human/Blood/OH/US/1994; experiment: microbe, parasite or virus in culture; type: cell-based; conditions: Burkholderia pseudomallei, read-out: MIC B. pseudomallei Human/Blood/OH
# Burkholderia mallei CHN7 = experiment: microbe, parasite or virus in culture; type: cell-based; conditions: Burkholderia mallei, CHN7, read-out: MIC B. mallei CHN7
# [6] = test system: Acinetobacter baumannii ATCC 19606; experiment: MIC, spiral gradient endpoint assay, A. baumannii; type: cell-based; conditions: ATCC19606; Acinetobacter baumannii ATCC 19606
# [7] = molecular target: E. coli RNA polymerase σ^70 holoenzyme (Escherichia coli, UniProt P0A8T7+P0A8V2); experiment: Fluorescence-detected RNA polymerase assay, E. coli RNA polymerase; type: biochemical; conditions: read-out: IC50 E. coli RNAP
# [8] = test system: Mycobacterium tuberculosis H37Rv; experiment: MIC, microplate Alamar Blue assay, M. tuberculosis; type: cell-based
# Brucella melitensis 16M = experiment: microbe, parasite or virus in culture; type: cell-based; conditions: Brucella melitensis, 16M, read-out: MIC B. melitensis 16M
# E. coli RNA polymerase σ^70 holoenzyme, sequence (P0A8T7 whole entry): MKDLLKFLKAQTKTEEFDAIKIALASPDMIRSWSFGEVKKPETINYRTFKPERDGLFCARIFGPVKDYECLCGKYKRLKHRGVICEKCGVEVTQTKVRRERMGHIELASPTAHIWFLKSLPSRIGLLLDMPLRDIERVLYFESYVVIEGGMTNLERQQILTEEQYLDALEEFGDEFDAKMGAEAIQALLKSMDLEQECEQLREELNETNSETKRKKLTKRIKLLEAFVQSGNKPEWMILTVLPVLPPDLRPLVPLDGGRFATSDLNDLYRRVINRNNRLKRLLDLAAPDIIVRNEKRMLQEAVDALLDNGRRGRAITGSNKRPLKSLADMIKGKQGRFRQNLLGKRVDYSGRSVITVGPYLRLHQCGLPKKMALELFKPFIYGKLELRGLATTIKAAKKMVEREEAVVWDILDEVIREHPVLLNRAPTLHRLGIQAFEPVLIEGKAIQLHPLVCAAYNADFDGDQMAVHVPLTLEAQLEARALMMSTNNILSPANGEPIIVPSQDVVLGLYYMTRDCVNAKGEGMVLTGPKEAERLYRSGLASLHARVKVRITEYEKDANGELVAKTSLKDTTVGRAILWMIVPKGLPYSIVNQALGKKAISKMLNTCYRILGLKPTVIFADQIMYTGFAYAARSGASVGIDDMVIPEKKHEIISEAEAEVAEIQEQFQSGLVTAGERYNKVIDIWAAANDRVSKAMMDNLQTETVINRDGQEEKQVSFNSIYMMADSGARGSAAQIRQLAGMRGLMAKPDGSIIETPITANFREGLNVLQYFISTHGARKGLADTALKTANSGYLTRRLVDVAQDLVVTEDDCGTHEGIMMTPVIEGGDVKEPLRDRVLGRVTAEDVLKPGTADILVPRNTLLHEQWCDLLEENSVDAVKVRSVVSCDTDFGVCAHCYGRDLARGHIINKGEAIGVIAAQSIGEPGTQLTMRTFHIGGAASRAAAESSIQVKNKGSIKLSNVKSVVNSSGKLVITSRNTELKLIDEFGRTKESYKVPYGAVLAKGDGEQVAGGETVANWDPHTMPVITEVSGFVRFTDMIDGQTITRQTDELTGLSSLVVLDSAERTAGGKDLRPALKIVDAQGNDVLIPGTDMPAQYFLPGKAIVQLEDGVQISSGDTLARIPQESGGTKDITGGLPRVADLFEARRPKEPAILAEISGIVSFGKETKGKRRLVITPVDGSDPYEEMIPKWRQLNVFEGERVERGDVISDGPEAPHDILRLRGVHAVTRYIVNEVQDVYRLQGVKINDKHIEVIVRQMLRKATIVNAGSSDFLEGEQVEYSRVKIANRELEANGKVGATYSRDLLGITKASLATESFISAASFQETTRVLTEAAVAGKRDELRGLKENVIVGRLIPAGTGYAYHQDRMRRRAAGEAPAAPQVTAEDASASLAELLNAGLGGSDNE
# E. coli RNA polymerase σ^70 holoenzyme, sequence (P0A800 whole entry, further chain): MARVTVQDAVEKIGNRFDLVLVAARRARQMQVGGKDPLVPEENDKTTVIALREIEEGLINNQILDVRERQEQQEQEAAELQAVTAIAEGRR
# E. coli RNA polymerase σ^70 holoenzyme, sequence (P0A8V2 whole entry): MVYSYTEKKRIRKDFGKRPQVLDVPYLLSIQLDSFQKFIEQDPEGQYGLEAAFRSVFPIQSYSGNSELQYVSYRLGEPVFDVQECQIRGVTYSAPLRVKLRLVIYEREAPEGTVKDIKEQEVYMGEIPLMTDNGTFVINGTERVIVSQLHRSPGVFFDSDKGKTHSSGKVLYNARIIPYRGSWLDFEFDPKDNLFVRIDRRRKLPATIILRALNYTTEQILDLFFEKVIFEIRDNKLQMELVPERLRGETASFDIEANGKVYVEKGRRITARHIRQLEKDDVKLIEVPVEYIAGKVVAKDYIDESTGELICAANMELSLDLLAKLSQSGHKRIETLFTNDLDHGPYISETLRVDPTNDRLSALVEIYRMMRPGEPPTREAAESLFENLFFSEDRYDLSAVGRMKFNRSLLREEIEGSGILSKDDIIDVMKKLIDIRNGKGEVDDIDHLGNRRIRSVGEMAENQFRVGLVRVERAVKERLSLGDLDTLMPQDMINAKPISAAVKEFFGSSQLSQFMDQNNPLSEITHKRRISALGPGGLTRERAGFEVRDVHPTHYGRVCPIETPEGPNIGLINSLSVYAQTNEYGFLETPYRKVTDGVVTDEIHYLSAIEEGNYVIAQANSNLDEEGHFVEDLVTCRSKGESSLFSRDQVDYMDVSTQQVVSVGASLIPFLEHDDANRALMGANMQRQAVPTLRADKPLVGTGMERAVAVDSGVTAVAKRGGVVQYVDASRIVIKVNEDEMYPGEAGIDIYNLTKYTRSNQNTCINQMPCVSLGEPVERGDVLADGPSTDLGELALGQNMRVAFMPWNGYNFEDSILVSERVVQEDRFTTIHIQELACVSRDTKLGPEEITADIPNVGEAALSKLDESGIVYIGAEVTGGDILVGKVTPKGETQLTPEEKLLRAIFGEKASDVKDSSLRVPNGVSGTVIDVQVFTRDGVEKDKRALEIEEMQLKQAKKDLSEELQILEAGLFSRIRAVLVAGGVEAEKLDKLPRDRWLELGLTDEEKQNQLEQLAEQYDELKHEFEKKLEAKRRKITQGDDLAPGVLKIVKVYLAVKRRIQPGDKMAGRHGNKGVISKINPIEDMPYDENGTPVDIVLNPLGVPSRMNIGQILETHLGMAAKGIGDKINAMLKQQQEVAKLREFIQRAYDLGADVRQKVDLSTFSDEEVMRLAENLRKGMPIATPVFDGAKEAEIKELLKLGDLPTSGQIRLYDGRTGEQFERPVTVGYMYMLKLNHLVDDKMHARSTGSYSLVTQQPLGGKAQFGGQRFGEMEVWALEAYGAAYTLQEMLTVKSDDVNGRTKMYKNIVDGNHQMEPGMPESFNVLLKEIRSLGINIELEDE
# E. coli RNA polymerase σ^70 holoenzyme, sequence (P00579 whole entry, further chain): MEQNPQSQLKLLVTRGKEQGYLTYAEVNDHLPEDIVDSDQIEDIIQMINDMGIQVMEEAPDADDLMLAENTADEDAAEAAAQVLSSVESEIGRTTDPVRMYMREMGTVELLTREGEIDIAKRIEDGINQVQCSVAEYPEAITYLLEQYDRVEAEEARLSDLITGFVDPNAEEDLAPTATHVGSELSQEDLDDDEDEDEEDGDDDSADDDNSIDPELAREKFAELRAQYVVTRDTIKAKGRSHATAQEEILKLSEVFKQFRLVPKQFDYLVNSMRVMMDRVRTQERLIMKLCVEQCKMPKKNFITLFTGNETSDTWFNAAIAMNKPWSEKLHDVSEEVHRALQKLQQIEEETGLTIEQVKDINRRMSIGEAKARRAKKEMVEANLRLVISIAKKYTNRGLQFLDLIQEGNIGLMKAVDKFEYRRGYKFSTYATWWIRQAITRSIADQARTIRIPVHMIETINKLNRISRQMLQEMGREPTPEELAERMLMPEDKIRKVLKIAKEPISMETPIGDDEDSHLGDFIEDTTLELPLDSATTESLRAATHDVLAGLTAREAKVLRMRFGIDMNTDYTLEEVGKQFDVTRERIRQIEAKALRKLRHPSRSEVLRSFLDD
# E. coli RNA polymerase σ^70 holoenzyme, sequence (P0A7Z4 whole entry, further chain): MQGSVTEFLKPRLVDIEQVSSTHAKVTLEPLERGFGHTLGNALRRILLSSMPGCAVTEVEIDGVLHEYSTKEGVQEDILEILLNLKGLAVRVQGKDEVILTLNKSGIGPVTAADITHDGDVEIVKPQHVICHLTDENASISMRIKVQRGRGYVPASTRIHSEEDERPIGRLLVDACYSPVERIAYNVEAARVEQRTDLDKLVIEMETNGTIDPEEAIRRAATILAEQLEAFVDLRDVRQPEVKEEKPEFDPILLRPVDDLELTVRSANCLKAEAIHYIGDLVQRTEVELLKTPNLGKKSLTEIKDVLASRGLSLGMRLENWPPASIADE
SMILES,MIC [1],MIC [2],MIC (Yersinia pestis C092),MIC [3],MIC [4],MIC [5],MIC (Burkholderia mallei CHN7),MIC [6],IC50 [7],MIC [8],MIC (Brucella melitensis 16M)
"CCCOc1cccc(C=C(C)C(=O)c2c(O)cc(C(C)CC/C=C/NC(=O)OC)oc2=O)c1 (mixture of isomers) [APY43, methyl (E)-5-(4-hydroxy-3-((E/Z)-2-methyl-3-(3-propoxyphenyl)acryloyl)-2-oxo-2H-pyran-6-yl)hex-1-enylcarbamate]",0.4 µg/mL,10 µg/mL,> 50 µg/mL,30 µg/mL,> 40 µg/mL,50 µg/mL,50 µg/mL,> 40 µg/mL,200 nM,6 µg/mL,3 µg/mL
"CCCOc1ccc(C=C(C)C(=O)c2c(O)cc(C(C)CC/C=C/NC(=O)OC)oc2=O)cc1 (mixture of isomers) [APY40, methyl (E)-5-(4-hydroxy-3-((E/Z)-2-methyl-3-(4-propoxyphenyl)acryloyl)-2-oxo-2H-pyran-6-yl)hex-1-enylcarbamate]",0.4 µg/mL,10 µg/mL,> 50 µg/mL,> 50 µg/mL,1 µg/mL,> 50 µg/mL,> 50 µg/mL,9 µg/mL,10 nM,6 µg/mL,3 µg/mL
"CCCCOc1ccc(C=C(C)C(=O)c2c(O)cc(C(C)CC/C=C/NC(=O)OC)oc2=O)cc1 (mixture of isomers) [APY39, methyl (E)-5-(3-((E/Z)-3-(4-butoxyphenyl)-2-methylacryloyl)-4-hydroxy-2-oxo-2H-pyran-6-yl)hex-1-enylcarbamate]",0.2 µg/mL,3 µg/mL,30 µg/mL,30 µg/mL,1 µg/mL,50 µg/mL,10 µg/mL,> 40 µg/mL,80 nM,3 µg/mL,0.4 µg/mL
"COC(=O)N/C=C/CCC(C)c1cc(O)c(C(=O)C(C)=Cc2cccc(OCCC(C)(C)C)c2)c(=O)o1 (mixture of isomers) [APY49, methyl (E)-5-(3-((E/Z)-3-(3-(3,3-dimethylbutoxy)phenyl)-2-methylacryloyl)-4-hydroxy-2-oxo-2H-pyran-6-yl)hex-1-enylcarbamate]",0.3 µg/mL,10 µg/mL,> 50 µg/mL,30 µg/mL,> 40 µg/mL,> 50 µg/mL,50 µg/mL,> 40 µg/mL,10 nM,50 µg/mL,10 µg/mL
"COC(=O)N/C=C/CCC(C)c1cc(O)c(C(=O)C(C)=Cc2sc(CC(C)C)cc2Br)c(=O)o1 (mixture of isomers) [APY124, methyl ((1E)-5-(3-(3-(3-bromo-5-isobutylthiophen-2-yl)-2-methylacryloyl)-4-hydroxy-2-oxo-2H-pyran-6-yl)hex-1-en-1-yl)carbamate]",0.3 µg/mL,0.2 µg/mL,6 µg/mL,6 µg/mL,0.9 µg/mL,30 µg/mL,10 µg/mL,6 µg/mL,4 nM,50 µg/mL,10 µg/mL
"COC(=O)N/C=C/CCC(C)c1cc(O)c(C(=O)C(C)=Cc2ccc(OC(C)C)cc2C)c(=O)o1 (mixture of isomers) [APY130, methyl ((1E)-5-(4-hydroxy-3-(3-(4-isopropoxy-2-methylphenyl)-2-methylacryloyl)-2-oxo-2H-pyran-6-yl)hex-1-en-1-yl)carbamate]",2 µg/mL,10 µg/mL,> 50 µg/mL,> 50 µg/mL,3 µg/mL,> 50 µg/mL,> 50 µg/mL,> 40 µg/mL,200 nM,30 µg/mL,> 50 µg/mL
"COC(=O)N/C=C/CCC(C)c1cc(O)c(C(=O)C(C)=Cc2ccc(OCC(F)(F)F)cc2)c(=O)o1 (mixture of isomers) [APY117, methyl ((1E)-5-(4-hydroxy-3-(2-methyl-3-(4-(2,2,2-trifluoroethoxy)phenyl)acryloyl)-2-oxo-2H-pyran-6-yl)hex-1-en-1-yl)carbamate]",0.4 µg/mL,10 µg/mL,50 µg/mL,> 50 µg/mL,2 µg/mL,> 50 µg/mL,50 µg/mL,> 40 µg/mL,100 nM,10 µg/mL,10 µg/mL
"COC(=O)N/C=C/CCC(C)c1cc(O)c(C(=O)C(C)=Cc2ccc(Oc3ccc(C(F)(F)F)cc3)s2)c(=O)o1 (mixture of isomers) [APY119, methyl ((1E)-5-(4-hydroxy-3-(2-methyl-3-(5-(4-(trifluoromethyl)phenoxy)thiophen-2-yl)acryloyl)-2-oxo-2H-pyran-6-yl)hex-1-en-1-yl)carbamate]",0.1 µg/mL,0.8 µg/mL,3 µg/mL,50 µg/mL,2 µg/mL,6 µg/mL,3 µg/mL,> 40 µg/mL,6 nM,> 50 µg/mL,3 µg/mL
"CCCOc1ccc(C=C(C)C(=O)c2c(O)cc(C(C)CC/C=C/NC(=O)OC)oc2=O)c(C)c1 (mixture of isomers) [APY128, methyl ((1E)-5-(4-hydroxy-3-(2-methyl-3-(2-methyl-4-propoxyphenyl)acryloyl)-2-oxo-2H-pyran-6-yl)hex-1-en-1-yl)carbamate]",0.6 µg/mL,10 µg/mL,> 50 µg/mL,> 50 µg/mL,4 µg/mL,> 50 µg/mL,> 50 µg/mL,> 40 µg/mL,500 nM,30 µg/mL,> 50 µg/mL
"CCC(C)Oc1ccc2c(c1)cc(C=C(C)C(=O)c1c(O)cc(C(C)CC/C=C/NC(=O)OC)oc1=O)n2C (stereo not drawn) [APY122, methyl ((1E)-5-(3-(3-(5-(sec-butoxy)-1-methyl-1H-indol-2-yl)-2-methylacryloyl)-4-hydroxy-2-oxo-2H-pyran-6-yl)hex-1-en-1-yl)carbamate]",0.5 µg/mL,50 µg/mL,> 50 µg/mL,50 µg/mL,> 40 µg/mL,> 50 µg/mL,> 50 µg/mL,> 40 µg/mL,100 nM,> 50 µg/mL,> 50 µg/mL
"COC(=O)N/C=C/CCC(C)c1cc(O)c(C(=O)C(C)=Cc2ccc(OCCC(F)(F)F)cc2)c(=O)o1 (mixture of isomers) [APY126, methyl ((1E)-5-(4-hydroxy-3-(2-methyl-3-(4-(3,3,3-trifluoropropoxy)phenyl)acryloyl)-2-oxo-2H-pyran-6-yl)hex-1-en-1-yl)carbamate]",0.3 µg/mL,3 µg/mL,30 µg/mL,> 50 µg/mL,1 µg/mL,> 50 µg/mL,50 µg/mL,> 40 µg/mL,80 nM,6 µg/mL,10 µg/mL
COC(=O)N/C=C/CCC(C)c1cc(O)c(C(=O)C(C)=Cc2cc3cc(OC(C)C)ccc3n2C)c(=O)o1 (mixture of isomers) [APY123],2 µg/mL,> 50 µg/mL,> 50 µg/mL,> 50 µg/mL,> 40 µg/mL,> 50 µg/mL,> 50 µg/mL,> 40 µg/mL,500 nM,> 50 µg/mL,> 50 µg/mL
